Converted amounts (≈) assume the structure as drawn. Where two headings read alike, the source gives them in different places. Each block holds one compound with its values, some of them ahead of it.
Columns and labels:
[1] = test system: HIV-1 IIIB; assay: Anti-HIV-1 activity in MT-4 cells (MTT assay); type: cell-based; settings: Human immunodeficiency virus 1, IIIB, MT4, 120 h, read-out: EC50 HIV-1 IIIB
Description: (§1) The antiviral activities and cytotoxicities of the target compounds were tested using MT-4 cells infected by HIV-1 IIIB or HIV-2 ROD. […] PF74 was utilized as the control drug in this assay.

[2] = test system: HIV-2 ROD; assay: Anti-HIV-2 activity in MT-4 cells (MTT assay); type: cell-based; settings: Human immunodeficiency virus 2, MT4, 120 h, read-out: EC50 HIV-2 ROD
Description: as §1

[3] = test system: MT-4 cells; assay: Cytotoxicity in mock-infected MT-4 cells (MTT assay); type: cell-based; settings: uninfected (mock-infected) MT-4 cells, viability reduced by 50%
Description: as §1

[4] = Water solubility assay in phosphate buffer (HPLC); type: physicochemical; settings: for solubility: aqueous buffer, thermodynamic from solid, HPLC; for water solubility compared with PF74: in words, relative to PF74
Description: To test the changes in water solubility when two more amides or its mimics were introduced to the target compounds, which may lower the solubility of the target compounds, we performed water solubility assays (Table 2). […] Therefore, we cannot calculate its water solubility. It was illustrated that the solubility of compounds varied greatly under different pH. […] We weighed about 1mg of the compound, dissolved it with 1ml of methanol, and diluted it in gradient (twice each time) to obtain 10 concentrations. The peak area of the compound was tested by HPLC, and the peak area- concentration standard curve was drawn. In addition, about 1 mg, 0.6 mg and 0.3 mg of the compound were weighed and dissolved in 1 mL of pH 2, pH 7 and pH 7.4 phosphate buffer to obtain the saturated solution of the compound. HPLC was used to test the peak area under different pH, and the water solubility of the compound was obtained through the standard curve.

[5] = test system: HIV; set-up: method as in PMID 32612233; settings: MT-4 cells; read-out: EC50 antiviral activity; cited from earlier work
[6] = Cytotoxicity in mock-infected MT-4 cells (MTT assay); type: cell-based; settings: human, mock-infected (uninfected) MT-4 cells, uninfected (mock-infected) MT-4 cells, viability reduced by 50%
Description: as §1

[7] = MT-4 cells, 50% protection against HIV-induced cytopathic effect, MTT, five days after infection
[8] = phosphate buffer pH 2, saturated solution, read-out: Solubility pH 2
[9] = phosphate buffer pH 7, saturated solution, read-out: Solubility pH 7
[10] = phosphate buffer pH 7.4, saturated solution, read-out: Solubility pH 7.4

EC50 [1, 7]: 5.36 ± 0.98 µM | EC50 [2, 7]: 15.6 ± 1.06 µM | solubility [4, 8]: 367 ± 58.4 µg/mL (≈ 779 µM) | solubility [4, 9]: 261 ± 130 µg/mL (≈ 555 µM) | solubility [4, 10]: 437 ± 51.9 µg/mL (≈ 928 µM) | water solubility compared with PF74 [4]: improved by a factor of hundreds
Compound: COc1ccc(N(C)C(=O)[C@H](Cc2cc(F)cc(F)c2)NC(=O)Cn2ccc(N)cc2=O)cc1 [FTC-2, (S)-2-(2-(4-amino-2-oxopyridin-1(2H)-yl)acetamido)-3-(3,5-difluorophenyl)-N-(4-methoxyphenyl)-N-methylpropanamide]
CC50 [3]: > 266 µM

Compound: COc1ccc(N(C)C(=O)[C@H](Cc2ccccc2)NC(=O)Cn2ccc(NC(=O)c3ccc([N+](=O)[O-])cc3)cc2=O)cc1 [TD-1l, (S)-N-(1-(2-((1-((4-methoxyphenyl)(methyl)amino)-1-oxo-3-phenylpropan-2-yl)amino)-2-oxoethyl)-2-oxo-1,2-dihydropyridin-4-yl)-4-nitrobenzamide]
EC50 [1, 7]: > 31.9 µM | EC50 [2, 7]: > 31.9 µM | CC50 [3]: 31.9 ± 1.73 µM

Compound: CC(C)(C#Cc1ccc(-c2ccc(Cl)c3c(NS(C)(=O)=O)nn(CC(F)(F)F)c23)c([C@H](Cc2cc(F)cc(F)c2)NC(=O)Cn2nc(C(F)(F)F)c3c2C(F)(F)[C@@H]2C[C@H]32)n1)S(C)(=O)=O [GS-6207]
EC50 [5]: 0.000105 µM

EC50 [1, 7]: 29.1 ± 4.23 µM | EC50 [2, 7]: 19.7 ± 6.42 µM
Compound: COc1ccc(N(C)C(=O)[C@H](Cc2ccccc2)NC(=O)Cn2ccc(N)cc2=O)cc1 [TC-2, (S)-2-(2-(4-amino-2-oxopyridin-1(2H)-yl)acetamido)-N-(4-methoxyphenyl)-N-methyl-3-phenylpropanamide]
CC50 [3]: 261 ± 33.1 µM

Compound: COc1ccc(N(C)C(=O)[C@H](Cc2ccccc2)NC(=O)Cn2ccc(NC(=O)c3ccc4ccccc4c3)cc2=O)cc1 [TD-1k, (S)-N-(1-(2-((1-((4-methoxyphenyl)(methyl)amino)-1-oxo-3-phenylpropan-2-yl)amino)-2-oxoethyl)-2-oxo-1,2-dihydropyridin-4-yl)-2-naphthamide]
EC50 [1, 7]: > 27.6 µM | EC50 [2, 7]: > 27.6 µM | CC50 [3]: 27.6 ± 3.18 µM

Compound: COc1ccc(N(C)C(=O)[C@H](Cc2ccccc2)NC(=O)Cn2ccc(NC(=O)c3cccc(F)c3)cc2=O)cc1 [TD-1c, (S)-3-fluoro-N-(1-(2-((1-((4-methoxyphenyl)(methyl)amino)-1-oxo-3-phenylpropan-2-yl)amino)-2-oxoethyl)-2-oxo-1,2-dihydropyridin-4-yl)benzamide]
EC50 [1, 7]: 18.9 ± 2.66 µM | EC50 [2, 7]: 6.59 ± 1.63 µM | CC50 [3]: 61.6 ± 8.44 µM

Compound: COc1ccc(N(C)C(=O)[C@H](Cc2ccccc2)NC(=O)Cn2ccc(NC(=O)c3ccccc3)cc2=O)cc1 [TD-1a, (S)-N-(1-(2-((1-((4-methoxyphenyl)(methyl)amino)-1-oxo-3-phenylpropan-2-yl)amino)-2-oxoethyl)-2-oxo-1,2-dihydropyridin-4-yl)benzamide]
EC50 [1, 7]: 16.8 ± 0.91 µM | EC50 [2, 7]: 4.86 ± 1.71 µM | CC50 [3]: 86.5 ± 29.2 µM | solubility [4, 8]: 2.69 ± 0.52 µg/mL (≈ 4.99 µM) | solubility [4, 9]: 5.07 ± 2.6 µg/mL (≈ 9.41 µM) | solubility [4, 10]: 8.66 ± 0.41 µg/mL (≈ 16.1 µM) | water solubility compared with PF74 [4]: moderately increased

Compound: COc1ccc(N(C)C(=O)[C@H](Cc2ccccc2)NC(=O)Cn2ccc(NC(=O)c3ccccc3F)cc2=O)cc1 [TD-1d, (S)-2-fluoro-N-(1-(2-((1-((4-methoxyphenyl)(methyl)amino)-1-oxo-3-phenylpropan-2-yl)amino)-2-oxoethyl)-2-oxo-1,2-dihydropyridin-4-yl)benzamide]
EC50 [1, 7]: 17.9 ± 2.68 µM | EC50 [2, 7]: 7.92 ± 0.83 µM | CC50 [3]: 81.4 ± 22.7 µM

Compound: COc1ccc(N(C)C(=O)[C@H](Cc2ccccc2)NC(=O)Cn2ccc(NC(=O)c3ccc(Cl)cc3)cc2=O)cc1 [TD-1e, (S)-4-chloro-N-(1-(2-((1-((4-methoxyphenyl)(methyl)amino)-1-oxo-3-phenylpropan-2-yl)amino)-2-oxoethyl)-2-oxo-1,2-dihydropyridin-4-yl)benzamide]
EC50 [1, 7]: > 25.5 µM | EC50 [2, 7]: > 25.5 µM | CC50 [3]: 25.5 ± 2.9 µM

Compound: COc1ccc(N(C)C(=O)[C@H](Cc2ccccc2)NC(=O)Cn2ccc(NC(=O)c3ccc(Br)cc3)cc2=O)cc1 [TD-1f, (S)-4-bromo-N-(1-(2-((1-((4-methoxyphenyl)(methyl)amino)-1-oxo-3-phenylpropan-2-yl)amino)-2-oxoethyl)-2-oxo-1,2-dihydropyridin-4-yl)benzamide]
EC50 [1, 7]: > 23.5 µM | EC50 [2, 7]: > 23.5 µM | CC50 [3]: 23.5 ± 2.79 µM

Compound: COc1ccc(N(C)C(=O)[C@H](Cc2ccccc2)NC(=O)Cn2ccc(NC(=O)c3ccc(N)cc3)cc2=O)cc1 [TD-1m, (S)-4-amino-N-(1-(2-((1-((4-methoxyphenyl)(methyl)amino)-1-oxo-3-phenylpropan-2-yl)amino)-2-oxoethyl)-2-oxo-1,2-dihydropyridin-4-yl)benzamide]
EC50 [1, 7]: > 189 µM | EC50 [2, 7]: 17.1 ± 2.49 µM | CC50 [3]: 189 ± 2.19 µM

Compound: COc1ccc(N(C)C(=O)[C@H](Cc2ccccc2)NC(=O)Cn2ccc(NC(=O)c3ccc(C#N)cc3)cc2=O)cc1 [TD-1j, (S)-4-cyano-N-(1-(2-((1-((4-methoxyphenyl)(methyl)amino)-1-oxo-3-phenylpropan-2-yl)amino)-2-oxoethyl)-2-oxo-1,2-dihydropyridin-4-yl)benzamide]
EC50 [1, 7]: 16.8 ± 0.78 µM | EC50 [2, 7]: 17.8 ± 2.79 µM | CC50 [3]: 137 ± 22.5 µM

Compound: COc1ccc(N(C)C(=O)[C@H](Cc2ccccc2)NC(=O)Cn2ccc(NC(=O)c3ccc(F)cc3)cc2=O)cc1 [TD-1b, (S)-4-fluoro-N-(1-(2-((1-((4-methoxyphenyl)(methyl)amino)-1-oxo-3-phenylpropan-2-yl)amino)-2-oxoethyl)-2-oxo-1,2-dihydropyridin-4-yl)benzamide]
EC50 [1, 7]: > 34.8 µM | EC50 [2, 7]: 16.2 ± 17.2 µM | CC50 [3]: 34.8 ± 5.75 µM

Compound: COc1ccc(N(C)C(=O)[C@H](Cc2ccccc2)NC(=O)Cn2ccc(NC(=O)c3ccc(C)cc3)cc2=O)cc1 [TD-1g, (S)-N-(1-(2-((1-((4-methoxyphenyl)(methyl)amino)-1-oxo-3-phenylpropan-2-yl)amino)-2-oxoethyl)-2-oxo-1,2-dihydropyridin-4-yl)-4-methylbenzamide]
EC50 [1, 7]: 25.6 ± 7.51 µM | EC50 [2, 7]: 20.5 ± 8.49 µM | CC50 [3]: 58.3 ± 4.85 µM

Compound: COc1ccc(C(=O)Nc2ccn(CC(=O)N[C@@H](Cc3ccccc3)C(=O)N(C)c3ccc(OC)cc3)c(=O)c2)cc1 [TD-1h, (S)-4-methoxy-N-(1-(2-((1-((4-methoxyphenyl)(methyl)amino)-1-oxo-3-phenylpropan-2-yl)amino)-2-oxoethyl)-2-oxo-1,2-dihydropyridin-4-yl)benzamide]
EC50 [1, 7]: 29.6 ± 4.34 µM | EC50 [2, 7]: 10.7 ± 3.66 µM | CC50 [3]: 53.1 ± 5.12 µM

Compound: COC(=O)c1ccc(C(=O)Nc2ccn(CC(=O)N[C@@H](Cc3ccccc3)C(=O)N(C)c3ccc(OC)cc3)c(=O)c2)cc1 [TD-1i, methyl (S)-4-((1-(2-((1-((4-methoxyphenyl)(methyl)amino)-1-oxo-3-phenylpropan-2-yl)amino)-2-oxoethyl)-2-oxo-1,2-dihydropyridin-4-yl)carbamoyl)benzoate]
EC50 [1, 7]: 19.1 ± 5.08 µM | EC50 [2, 7]: 15.2 ± 0.55 µM | CC50 [3]: 96.2 ± 19.8 µM

Compound: Cc1[nH]c2ccccc2c1CC(=O)NC(Cc1ccccc1)C(=O)N(C)c1ccccc1 (stereo not drawn) [PF74, reference compound]
EC50 [1]: 1.08 ± 0.24 µM | EC50 [2]: 5.76 ± 2.14 µM | CC50 at 5 days [6]: > 294 µM | solubility [4, 8]: < 1.12 µg/mL | solubility [4, 9]: 1.44 ± 0.1 µg/mL (≈ 3.38 µM) | solubility [4, 10]: 1.91 ± 0.56 µg/mL (≈ 4.49 µM)

Source: publication PMC9658817, “Design, Synthesis, and Mechanistic Study of 2-Pyridone-Bearing Phenylalanine Derivatives as Novel HIV Capsid Modulators” (Molecules, 2022)
